The target in test [1] is T1, ACAT of rat liver microsome (Rattus norvegicus, UniProt Q7TQM4).
T1 construct: from tissue; host or cells: rat liver microsomes
T1 sequence (Q7TQM4 1-524): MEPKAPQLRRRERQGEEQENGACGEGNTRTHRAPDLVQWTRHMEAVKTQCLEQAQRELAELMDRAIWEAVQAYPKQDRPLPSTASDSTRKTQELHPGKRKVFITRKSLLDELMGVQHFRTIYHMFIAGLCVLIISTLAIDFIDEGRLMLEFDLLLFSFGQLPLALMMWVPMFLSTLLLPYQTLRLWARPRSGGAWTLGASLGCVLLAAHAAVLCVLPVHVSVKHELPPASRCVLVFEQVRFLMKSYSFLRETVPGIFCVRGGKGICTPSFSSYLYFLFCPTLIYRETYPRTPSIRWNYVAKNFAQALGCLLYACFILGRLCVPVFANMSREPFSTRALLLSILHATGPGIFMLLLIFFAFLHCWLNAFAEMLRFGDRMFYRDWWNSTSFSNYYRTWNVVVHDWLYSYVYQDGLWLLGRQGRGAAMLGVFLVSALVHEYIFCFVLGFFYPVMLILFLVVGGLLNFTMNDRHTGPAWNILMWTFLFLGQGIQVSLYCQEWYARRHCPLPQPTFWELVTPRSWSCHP
Kind of test: inhibitory activity against ACAT using rat liver microsome. It counts as biochemical. The conditions noted are these: 5 min; 100 nM of each compound; Mean + S.D.; n = 3; 37° C. for 5 minutes; vs DMSO control; read-out: Inhibition rate against ACAT activity in rat liver microsome (%). On the procedure: - ii) Test for inhibitory activity against ACAT using rat liver microsome
The ACAT activity of rat liver microsome was measured as the radioactivity of cholesteryl oleate produced from [^14 C]oleoyl-CoA and endogenous cholesterol.
More specifically, [^14 C]oleoyl-CoA and delipidized BSA were added to a rat liver microsome fraction prepared in accordance with a method known per se in the art to conduct a reaction at 37° C. for 5 minutes. After the reaction, the lipid in the reaction mixture was extracted with hexane, and the extract was dried to solid under reduced pressure. After the resultant residue was then developed (developing solvent: diethyl ether/hexane/acetic acid 80/20/1) by TLC, the amount of cholesteryl oleate formed was determined by an imaging plate.
Background: Liver microsomes are vesicles of endoplasmic reticulum, rich in cytochrome P450 enzymes.

Another test has as its target T2, ACAT in J774 cells (Mus musculus, UniProt Q61263).
T2 construct: endogenous in cells; host or cells: J774 cells (mouse macrophage-like)
T2 sequence (Q61263 1-540): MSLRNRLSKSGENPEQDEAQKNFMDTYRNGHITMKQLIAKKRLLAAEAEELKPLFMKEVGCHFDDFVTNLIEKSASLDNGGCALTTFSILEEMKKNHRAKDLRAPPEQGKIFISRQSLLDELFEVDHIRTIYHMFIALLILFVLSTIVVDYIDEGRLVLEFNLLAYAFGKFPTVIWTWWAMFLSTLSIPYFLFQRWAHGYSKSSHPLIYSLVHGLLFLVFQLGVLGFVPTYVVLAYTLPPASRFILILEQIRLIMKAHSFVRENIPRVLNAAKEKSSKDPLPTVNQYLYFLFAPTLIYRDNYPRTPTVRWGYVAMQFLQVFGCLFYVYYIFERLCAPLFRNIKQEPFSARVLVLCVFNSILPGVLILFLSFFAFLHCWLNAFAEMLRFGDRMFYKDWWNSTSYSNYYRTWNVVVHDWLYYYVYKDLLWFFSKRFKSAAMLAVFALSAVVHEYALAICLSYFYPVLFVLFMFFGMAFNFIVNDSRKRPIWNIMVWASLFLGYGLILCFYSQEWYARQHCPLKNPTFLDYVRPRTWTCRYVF
Kind of test: inhibitory activity against ACAT using J774 cells. Type of test: cell-based. The conditions noted are these: 100 nM of each compound, mean ± S.D., n = 3, 4 hours at 37° C., vs DMSO control, read-out: Inhibition rate against ACAT activity in J774 cells (%). On the procedure:
i) Test for inhibitory activity against ACAT using J774 cells:
The ACAT activity of J774 cells was measured as the radioactivity of cholesteryl oleate produced from [^14 C]oleic acid and cholesterol which were added to a culture solution.
Added to the cells were [^14 C]oleic acid, delipidized BAS (bovine serum albumin), […] (0.3M glucose solution containing cholesterol and phosphatidylcholine at a weight ratio of 2:1) and 25-hydroxycholesterol to culture the cells for 4 hours at 37° C. under 5% CO2. After the culturing, the cultured cells were disrupted with a 1% SDS (sodium lauryl sulfate) solution, and the lipid in the disrupted solution was extracted with hexane. The extract was dried to solid under reduced pressure. After the resultant residue was then developed (developing solvent: diethyl ether/hexane/acetic acid=80/20/1) by TLC (thin-layer chromatography), the amount of cholesteryl oleate formed was determined by an imaging plate.

We go through 2 compounds from patent US5866609A, “Substituted vinylurea derivatives and medicine containing the same” (SS Pharmaceutical Co., Ltd., priority 1996, dated 1999).

Consider `Cc1cc2ncc(NC(=O)Nc3ccc(F)cc3F)c(-c3ccccc3Cl)c2cc1C` [TMP-153], for which the inhibition (as a rule, the relative decrease from the control value, in per cent) at 0.1 µM in test [1] stood at 82.3 ± 2.79%; on ACAT in J774 cells, 36.9 ± 11.9%.

Consider `COc1ccc(C(=CNC(=O)Nc2c(C(C)C)cccc2C(C)C)c2ccc(OC)cc2)cc1` [Compound 3], for which the inhibition at 0.1 µM in test [1] turned out to be 7.87 ± 9.26%; on ACAT in J774 cells it was 77.8 ± 4%.
